Consider 44 molecules from patent publication EP4813992A1, “POLYARYL DERIVATIVE AND USE THEREOF” (Hangzhou HealZen Therapeutics Co., Ltd., priority 2023, dated 2025).

The structures appear in SMILES notation.

The target of the assay is HPK1 kinase (Homo sapiens, UniProt Q92918). Put plainly: Lantha screen assay, inhibitory effect on HPK1 kinase. To be noted: initial compound concentration 1 µM. The class given is biochemical. As for the experimental part: The Lantha screen assay is used to evaluate the inhibitory effect of the compounds on HPK1 kinase. • a) Kinase buffer: 50 mM HEPES (pH 7.5), 10 mM MgCl2, 4 mM DTT, 0.01% Tween-20, 0.01% BSA. • b) Compound Preparation: The compound is diluted with DMSO, and the initial detection concentration of the compound is 1 µM and is diluted to the corresponding concentration. • c) Kinase response and termination: A kinase solution is prepared by adding kinase buffer, the kinase solution and the compound are added to the test plate to be incubated at room temperature for 10 minutes. Fluorescein-PKC and ATP are added to the kinase buffer to form a substrate solution, and 5 µl of the substrate solution is added to the test plate to start the reaction to be incubated at room temperature for 90 minutes; then, 10 µl of a mixture of antibody and EDTA is added to terminate the reaction to be incubated at room temperature for 60 minutes. • d) The date is read by Envision instrument to plot a curve with the Log concentration of the inhibitor as the X-axis and the inhibition rate as the Y-axis, and then the formula Y=Bottom + (Top-Bottom)/(1+(IC50/X)^HillSlope) is used to obtain IC50. Table 1 Inhibitory activity the compounds of the invention on HPK1 kinase
HPK1 kinase, sequence (Q92918 whole entry): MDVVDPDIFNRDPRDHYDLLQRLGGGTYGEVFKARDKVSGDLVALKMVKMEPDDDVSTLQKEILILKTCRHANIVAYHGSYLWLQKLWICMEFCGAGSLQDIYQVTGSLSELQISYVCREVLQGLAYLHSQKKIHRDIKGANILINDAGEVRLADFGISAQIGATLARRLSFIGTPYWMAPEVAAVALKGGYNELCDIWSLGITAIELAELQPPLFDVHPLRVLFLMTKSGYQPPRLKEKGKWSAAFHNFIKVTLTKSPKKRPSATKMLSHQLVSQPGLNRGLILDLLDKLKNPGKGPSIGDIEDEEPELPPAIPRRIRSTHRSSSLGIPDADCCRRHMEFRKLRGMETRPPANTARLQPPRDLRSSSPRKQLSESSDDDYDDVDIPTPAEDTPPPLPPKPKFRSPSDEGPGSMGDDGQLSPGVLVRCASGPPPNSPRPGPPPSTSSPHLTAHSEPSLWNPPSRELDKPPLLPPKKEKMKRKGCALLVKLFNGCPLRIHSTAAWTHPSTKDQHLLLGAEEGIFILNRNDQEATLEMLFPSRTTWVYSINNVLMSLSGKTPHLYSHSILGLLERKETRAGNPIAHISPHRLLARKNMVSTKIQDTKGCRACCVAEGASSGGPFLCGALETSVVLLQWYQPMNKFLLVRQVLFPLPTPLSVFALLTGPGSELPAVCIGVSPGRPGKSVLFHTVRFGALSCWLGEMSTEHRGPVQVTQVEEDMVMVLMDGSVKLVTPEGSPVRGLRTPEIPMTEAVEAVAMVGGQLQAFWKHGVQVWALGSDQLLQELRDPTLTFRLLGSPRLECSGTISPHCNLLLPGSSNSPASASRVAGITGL
The IC50 is the concentration needed to halve the response being measured. A higher IC50 goes with lower potency. Molecule `Cc1cc(C2CC(CN3CC=C(c4c(C)cc(-c5cnc6[nH]cc(-c7ccc(C(=O)N(C)C)cc7)c6n5)cc4C)CC3)C2)ccc1N1CCC(=O)NC1=O` (centres unmarked) [compound 039] gave an IC50 of less than 10 nM.

For the molecule `COc1ccc(N2CCC(C)(CN3CC=C(c4c(C)cc(-c5cnc6[nH]cc(-c7ccc(C(=O)N(C)C)cc7)c6n5)cc4C)CC3)C2)cc1N1CCC(=O)NC1=O` (centres unmarked) [compound 035], the IC50 is less than 10 nM. For `COc1ccc(C(=O)C2CCC(N3CC=C(c4c(C)cc(-c5cnc6[nH]cc(-c7ccc(C(=O)N(C)C)cc7)c6n5)cc4C)CC3)C2)cc1N1CCC(=O)NC1=O` (centres unmarked) [compound 044] the value was less than 10 nM; for `Cc1cc(-c2cnc3[nH]cc(-c4ccc(C(=O)N(C)C)cc4)c3n2)cnc1C1=CCN(C2CCN(c3ccc(N4CCC(=O)NC4=O)c(F)c3)C2)CC1` (centres unmarked) [compound 055], less than 10 nM; for `COc1cc(N2CC(CN3CC=C(c4c(C)cc(-c5cnc6[nH]cc(-c7ccc(C(=O)N(C)C)cc7)c6n5)cc4C)CC3)C2)ccc1N1CCC(=O)NC1=O` [compound 004], less than 10 nM. Regarding `COc1ccc(C(=O)N2CC(CN3CC=C(c4c(C)cc(-c5cnc6[nH]cc(-c7ccc(C(=O)N(C)C)cc7)c6n5)cc4C)CC3)C2)cc1N1CCC(=O)NC1=O` [compound 001], the IC50 is less than 10 nM.

`Cc1cc(N2CC(CN3CC=C(c4c(C)cc(-c5cnc6[nH]cc(-c7cnn(C8CCN(C9CCC9)CC8)c7)c6c5)cc4C)CC3)C2)ccc1N1CCC(=O)NC1=O` [compound 122]: the IC50 is less than 10 nM. `Cc1cc(-c2cnc3[nH]cc(-c4ccc(C(=O)N(C)C)cc4)c3n2)cc(C)c1C1=CCN(CC2CN(c3ccc4c(c3)c(N3CCC(=O)NC3=O)nn4C)C2)CC1` [compound 143] displayed an IC50 of less than 10 nM. For `COc1cc(N2CC(CN3CC=C(c4c(C)cc(-c5cnc6[nH]cc(-c7ccc(C(=O)N(C)C)cc7)c6n5)cc4C)CC3)C2)ccc1C(=O)NC1CCC(=O)NC1=O` (centres unmarked) [compound 059] the value was less than 10 nM; for `Cc1cc(NCC2(CN3CC=C(c4c(C)cc(-c5cnc6[nH]cc(-c7ccc(C(=O)N(C)C)cc7)c6n5)cc4C)CC3)CC2)ccc1N1CCC(=O)NC1=O` [compound 040], less than 10 nM.

`Cc1cc(-c2cnc(N)c(Oc3ccc(C(=O)N(C)C)cc3)n2)cc(C)c1C1=CCN(CC2CN(c3ccc(C(=O)NC4CCC(=O)NC4=O)cc3)C2)CC1` (centres unmarked) [compound 093] came in with an IC50 of less than 10 nM. With `Cc1cc(-c2cnc3[nH]cc(-c4ccc(C(=O)N(C)C)cc4)c3n2)cc(C)c1C1=CCN(CC2CCN(C(=O)c3ccc(Cl)c(N4CCC(=O)NC4=O)c3)CC2)CC1` [compound 120] the figure was less than 10 nM; with `Cc1cc(-c2cnc3[nH]cc(-c4ccc(C(=O)N(C)C)cc4)c3n2)cc(C)c1C1=CCN(C2CN(c3cc(F)c(C4CCC(=O)NC4=O)c(F)c3)C2)CC1` (centres unmarked) [compound 007], less than 10 nM. For `Cc1cc(N2CC3CC(N4CC=C(c5c(C)cc(-c6cnc7[nH]cc(-c8ccc(C(=O)N(C)C)cc8)c7c6)cc5C)CC4)CC3C2)ccc1N1CCC(=O)NC1=O` (centres unmarked) [compound 115] the value was less than 10 nM; for `Cc1cc(N2CC(N3CC=C(c4c(C)cc(-c5cnc6[nH]cc(-c7ccc(C(=O)N(C)C)cc7)c6n5)cc4C)CC3)C2)ccc1N1CCC(=O)NC1=O` [compound 125], less than 10 nM. In the case of `Cc1cc(-c2cnc(N)c(Oc3cnn(C4CCN(C)CC4)c3)n2)cc(C)c1C1=CCN(CC2CN(c3ccc(C4CCC(=O)NC4=O)cc3)C2)CC1` (centres unmarked) [compound 096], the IC50 is less than 10 nM.

Regarding `Cc1cc(N2CC3(CC(N4CC=C(c5c(C)cc(-c6cnc7[nH]cc(-c8ccc(C(=O)N(C)C)cc8)c7n6)cc5C)CC4)C3)C2)ccc1N1CCC(=O)NC1=O` [compound 034], the IC50 is less than 10 nM. For `Cc1cc(-c2cnc3[nH]cc(-c4ccc(C(=O)N(C)C)cc4)c3n2)cc(C)c1C1=CCN(CC2CN(c3cccc4c(C5CCC(=O)NC5=O)coc34)C2)CC1` (centres unmarked) [compound 147] the value was less than 10 nM. With `Cc1cc(-c2cnc3[nH]cc(-c4ccc(C(=O)N(C)C)cc4)c3n2)cc(C)c1C1=CCN(CC2CN(c3ccc4c(c3)c(C3CCC(=O)NC3=O)nn4C)C2)CC1` (centres unmarked) [compound 145] the figure was less than 10 nM; with `Cc1cc(-c2cnc3[nH]cc(-c4ccc(C(=O)N(C)C)cn4)c3n2)cc(C)c1C1=CCN(CC2CN(c3ccc(C(=O)NC4CCC(=O)NC4=O)cc3)C2)CC1` (centres unmarked) [compound 031], less than 10 nM; with `Cc1cc(N2CCC(CN3CC=C(c4c(C)cc(-c5cnc6[nH]cc(-c7ccc(C(=O)N(C)C)cc7)c6n5)cc4C)CC3)C2)ccc1N1CCC(=O)NC1=O` (centres unmarked) [compound 123], less than 10 nM. With `Cc1cc(N2CC(CN3CC=C(c4c(C)cc(-c5cnc6[nH]cc(-c7cccc(C#N)c7F)c6c5)cc4C)CC3)C2)ccc1N1CCC(=O)NC1=O` [compound 101] the figure was less than 10 nM; with `Cc1cc(N2CC(CN3CC=C(c4ccc(-c5cnc6[nH]cc(-c7ccc(C(=O)N(C)C)cc7)c6n5)cc4F)CC3)C2)ccc1N1CCC(=O)NC1=O` [compound 133], less than 10 nM. `CN(C)C(=O)c1ccc(-c2c[nH]c3ncc(-c4cnc(C5=CCN(CC6CN(c7ccc(C(=O)NC8CCC(=O)NC8=O)cn7)C6)CC5)c(F)c4)nc23)cc1` (centres unmarked) [compound 054] came in with an IC50 of less than 10 nM.

As to `Cc1cc(-c2cnc3[nH]cc(-c4ccc(C(=O)N(C)C)cc4)c3n2)cc(C)c1C1=CCN(CC2CCN(c3ccc(C(=O)NC4CCC(=O)NC4=O)cc3)CC2)CC1` (centres unmarked) [compound 065], the IC50 is less than 10 nM.

With `Cc1cc(-c2cnc3[nH]cc(-c4ccc(C(=O)N(C)C)cc4)c3n2)cc(C)c1C1=CCN(CCCC(=O)c2ccc(C3CCC(=O)NC3=O)cc2)CC1` (centres unmarked) [compound 033], the IC50 was less than 10 nM.

`Cc1cc(N2CC(CN3CC=C(c4c(C)cc(-c5cnc6[nH]cc(-c7cnn(C8CCOCC8)c7)c6c5)cc4C)CC3)C2)ccc1N1CCC(=O)NC1=O` [compound 114] showed an IC50 of less than 10 nM. Turning to `Cc1cc(N2CC(CN3CC=C(c4c(C)cc(-c5cnc6[nH]cc(-c7cnn(C8CCNCC8)c7)c6c5)cc4C)CC3)C2)ccc1N1CCC(=O)NC1=O` [compound 134], the IC50 is less than 10 nM.

The molecule `Cc1cc(-c2cnc3[nH]cc(-c4ccc(C(=O)N(C)C)cc4)c3n2)cc(C)c1C1=CCN(CC(=O)Cc2ccc(C3CCC(=O)NC3=O)c(F)c2)CC1` (centres unmarked) [compound 006] returned an IC50 of less than 10 nM.

Take `Cc1cc(-c2cnc3[nH]cc(-c4ccc(C(=O)N(C)C)cc4)c3n2)cc(C)c1C1=CCN(C2CC(C(=O)c3ccc(F)c(N4CCC(=O)NC4=O)c3)C2)CC1` (centres unmarked) [compound 037]: the IC50 was less than 10 nM. With `Cc1cc(-c2cnc3[nH]cc(-c4ccc(C(=O)N(C)C)cc4)c3n2)cc(C)c1C1=CCN(CC2CN(c3ccc(NC4CCC(=O)NC4=O)cc3F)C2)CC1` (centres unmarked) [compound 106] the figure was less than 10 nM; with `Cc1cc(-c2cnc3[nH]cc(-c4ccc(C(=O)N(C)C)cc4)c3n2)cc(C)c1C1=CCN(CC2CN(c3ccc(NC4CCC(=O)NC4=O)nc3)C2)CC1` (centres unmarked) [compound 087], less than 10 nM; with `Cc1cc(-c2cnc3[nH]cc(-c4ccc(C(=O)N(C)C)cc4)c3n2)cc(C)c1C1=CCN(CC2CN(c3ccc(NC4CCC(=O)NC4=O)cn3)C2)CC1` (centres unmarked) [compound 022], less than 10 nM. For `Cc1cc(-c2cnc3[nH]cc(-c4ccc(C(=O)N(C)C[C@H](C)O)cc4)c3n2)cc(C)c1C1=CCN(CC2CN(c3ccc(C(=O)NC4CCC(=O)NC4=O)cc3)C2)CC1` (some centres unmarked) [compound 032] the value was less than 10 nM. `COc1ccc(C(=O)N2CCC(CN3CC=C(c4c(C)cc(-c5cnc6scc(-c7ccc(C(=O)N(C)C)cc7)c6n5)cc4C)CC3)C2)cc1N1CCC(=O)NC1=O` (centres unmarked) [compound 082] yielded an IC50 of less than 10 nM. For the molecule `Cc1cc(N2CCC3(CCC(N4CC=C(c5c(C)cc(-c6cnc7[nH]cc(-c8ccc(C(=O)N(C)C)cc8)c7n6)cc5C)CC4)C3)C2)ccc1N1CCC(=O)NC1=O` (centres unmarked) [compound 017], the IC50 was less than 10 nM. Turning to `Cc1cc(N2CC(CN3CC=C(c4c(C)cc(-c5cnc6[nH]cc(-c7cnn(C8CCN(C9CC9)CC8)c7)c6c5)cc4C)CC3)C2)ccc1N1CCC(=O)NC1=O` [compound 118], the IC50 is less than 10 nM. For `Cc1cc(-c2cnc3[nH]cc(-c4ccc(C(=O)N(C)C)cc4)c3n2)cc(C)c1C1=CCN(C2CN(Cc3ccc(F)c(N4CCC(=O)NC4=O)c3)C2)CC1` [compound 038] the value was less than 10 nM. With `Cc1cc(N2CC(CN3CC=C(c4c(C)cc(-c5cnc(N)c(Oc6ccc(C(=O)N(C)C)cc6)n5)cc4C)CC3)C2)ccc1N1CCC(=O)NC1=O` [compound 091] the figure was less than 10 nM.

The molecule `Cc1cc(-c2cnc3[nH]cc(-c4ccc(C(=O)N(C)C)cc4)c3n2)cc(C)c1C1=CCN(C2CN(c3ccc(C(=O)NC4CCC(=O)NC4=O)cc3)C2)CC1` (centres unmarked) [compound 005] gave an IC50 of less than 10 nM.

For `Cc1cc(-c2cnc3[nH]cc(-c4cnc5[nH]ccc5c4)c3n2)cc(C)c1C1=CCN(C2CN(c3ccc(C(=O)NC4CCC(=O)NC4=O)cc3)C2)CC1` (centres unmarked) [compound 070], the IC50 is less than 10 nM. With `Cc1cc(-c2cnc3[nH]cc(-c4ccc(C(=O)N(C)C)cc4)c3n2)cc(C)c1C1=CCN(CC#Cc2cccc3c2n(C)c(=O)n3C2CCC(=O)NC2=O)CC1` (centres unmarked) [compound 046] the figure was less than 10 nM. With `Cc1cc(-c2cnc3[nH]cc(-c4ccc(C(=O)N(C)C)cc4)c3n2)cc(C)c1C1=CCN(CC2CN(c3ncc(C(=O)NC4CCC(=O)NC4=O)o3)C2)CC1` (centres unmarked) [compound 068] the figure was less than 10 nM; with `Cc1cc(N2CC(CN3CC=C(c4c(C)cc(-c5cnc6[nH]cc(-c7cnn(C8CCN(C(C)CC(=O)N(C)C)CC8)c7)c6c5)cc4C)CC3)C2)ccc1N1CCC(=O)NC1=O` (centres unmarked) [compound 136], less than 10 nM.
